Experimental data: ChEMBL document CHEMBL2029212, “Discovery of 1,4-disubstituted 3-cyano-2-pyridones: a new class of positive allosteric modulators of the metabotropic glutamate 2 receptor” (J Med Chem, 2012)
pEC50: −log10 of the molar value. Values belong to the molecule of their own block, whether it stands above or below them. Activity calls are given as the source filed them. The calls are words filed in the database; no cut-off is given here.

Assays:
[1] = target: T1, Metabotropic glutamate receptor 2 (Homo sapiens, UniProt Q14416); assay: Positive allosteric modulation of human mGlu2 receptor expressed in CHO cells assessed as glutamate-induced [35S]GTPgammaS binding after 30 mins by liquid scintillation counting; assay type: functional, cell-based
Target sequence in this assay (Q14416 whole entry): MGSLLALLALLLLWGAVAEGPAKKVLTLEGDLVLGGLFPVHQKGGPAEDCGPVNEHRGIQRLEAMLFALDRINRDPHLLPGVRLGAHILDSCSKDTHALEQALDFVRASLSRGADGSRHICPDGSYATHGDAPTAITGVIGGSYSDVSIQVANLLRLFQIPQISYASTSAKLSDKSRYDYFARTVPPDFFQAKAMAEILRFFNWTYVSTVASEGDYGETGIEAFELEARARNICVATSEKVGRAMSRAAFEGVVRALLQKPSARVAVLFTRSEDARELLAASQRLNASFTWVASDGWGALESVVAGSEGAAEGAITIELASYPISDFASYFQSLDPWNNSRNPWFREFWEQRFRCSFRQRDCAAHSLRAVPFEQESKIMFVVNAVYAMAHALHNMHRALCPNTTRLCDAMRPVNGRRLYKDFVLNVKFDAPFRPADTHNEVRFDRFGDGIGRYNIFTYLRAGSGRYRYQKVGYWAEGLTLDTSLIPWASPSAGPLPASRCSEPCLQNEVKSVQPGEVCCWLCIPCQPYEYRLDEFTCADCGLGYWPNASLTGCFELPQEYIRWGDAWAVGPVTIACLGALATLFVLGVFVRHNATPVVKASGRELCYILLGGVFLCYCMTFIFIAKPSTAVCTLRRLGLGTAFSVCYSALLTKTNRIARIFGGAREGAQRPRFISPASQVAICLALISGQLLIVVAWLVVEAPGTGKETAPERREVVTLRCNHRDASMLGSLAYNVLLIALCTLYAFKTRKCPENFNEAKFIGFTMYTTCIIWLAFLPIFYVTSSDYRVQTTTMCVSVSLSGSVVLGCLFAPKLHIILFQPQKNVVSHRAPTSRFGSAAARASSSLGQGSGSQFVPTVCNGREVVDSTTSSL

[2] = Drug metabolism in human liver microsomes at 5 uM after 15 mins; assay type: ADME, Microsome; settings: read-out: Drug metabolism
[3] = target: T1, Metabotropic glutamate receptor 2; assay: Positive allosteric modulation of human mGlu2 receptor expressed in CHO cells assessed as glutamate-induced [35S]GTPgammaS binding after 30 mins by liquid scintillation counting relative to glutamate; assay type: functional, cell-based
Target sequence in this assay (Q14416 19-872 limits assumed): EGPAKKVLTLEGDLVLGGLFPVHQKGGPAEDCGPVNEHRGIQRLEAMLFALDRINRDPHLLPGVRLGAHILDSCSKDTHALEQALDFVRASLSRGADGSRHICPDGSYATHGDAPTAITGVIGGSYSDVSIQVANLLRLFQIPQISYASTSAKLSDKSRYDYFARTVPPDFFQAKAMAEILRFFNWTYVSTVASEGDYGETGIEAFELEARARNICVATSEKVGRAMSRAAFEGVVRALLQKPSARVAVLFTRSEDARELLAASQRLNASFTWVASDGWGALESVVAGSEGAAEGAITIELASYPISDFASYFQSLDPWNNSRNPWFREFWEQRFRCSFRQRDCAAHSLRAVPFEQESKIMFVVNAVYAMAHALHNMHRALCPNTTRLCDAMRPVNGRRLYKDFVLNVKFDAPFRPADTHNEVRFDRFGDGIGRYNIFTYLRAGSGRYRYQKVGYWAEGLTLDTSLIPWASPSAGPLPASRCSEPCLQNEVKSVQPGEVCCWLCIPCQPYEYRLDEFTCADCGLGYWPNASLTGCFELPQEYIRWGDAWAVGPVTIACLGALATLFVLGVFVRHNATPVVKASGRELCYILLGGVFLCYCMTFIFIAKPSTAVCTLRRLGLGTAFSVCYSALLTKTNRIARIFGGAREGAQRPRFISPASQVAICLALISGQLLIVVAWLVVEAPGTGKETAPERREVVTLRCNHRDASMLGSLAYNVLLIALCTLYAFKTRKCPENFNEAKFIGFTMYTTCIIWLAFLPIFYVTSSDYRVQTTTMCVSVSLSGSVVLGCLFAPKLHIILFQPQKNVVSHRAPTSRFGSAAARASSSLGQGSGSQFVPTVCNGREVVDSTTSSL

[4] = Drug metabolism in rat liver microsomes at 5 uM after 15 mins; assay type: ADME, Microsome; settings: read-out: Drug metabolism
hERG = hERG (Homo sapiens, UniProt Q12809); assay: Inhibition of human ERG expressed in HEK293 cells assessed as whole cell current at 3 uM after 5 mins by automated patch-clamp assay relative to control; assay type: cell-based; settings: HEK293 cells expressing hERG
[5] = Aqueous solubility of the compound in 20% HP-beta-CD buffer at pH 4; assay type: physicochemical
[6] = target: Metabotropic glutamate receptor 1 (Homo sapiens) (UniProt Q13255); assay: Agonist activity at human mGluR1 expressed in HEK293 cells by fluorescent Ca2+ assay; assay type: functional, cell-based
[7] = Drug level in Swiss mouse brain at 10 mg/kg, sc after 1 hr; assay type: ADME, organism-based; parameters: dose 10 mg/kg, route subcutaneous; settings: read-out: Drug uptake
[8] = target: Sodium-dependent noradrenaline transporter (Homo sapiens) (UniProt P23975); assay: Binding affinity to norepinephrine transporter at 10 uM
[9] = target: Metabotropic glutamate receptor 4 (Homo sapiens) (UniProt Q14833); assay: Agonist activity at human mGluR4 expressed in L929 cells by [35S]GTPgammaS binding assay; assay type: functional, cell-based
Rattus norvegicus [10] = assay: Effect on sleep-awake cycle in Sprague-Dawley rat EEG model assessed as light sleep time at 10 mg/kg, sc by sleep-wake electroencephalogram assay; assay type: functional, organism-based; parameters: dose 10 mg/kg
Rattus norvegicus [11] = assay: Effect on sleep-awake cycle in Sprague-Dawley rat EEG model assessed as deep sleep time at 10 mg/kg, sc by sleep-wake electroencephalogram assay; assay type: functional, organism-based; parameters: dose 10 mg/kg
[12] = target: Metabotropic glutamate receptor 4 (Homo sapiens) (UniProt Q14833); assay: Antagonist activity at human mGluR4 expressed in L929 cells by [35S]GTPgammaS binding assay; assay type: functional, cell-based
[13] = target: Metabotropic glutamate receptor 5 (Homo sapiens) (UniProt P41594); assay: Agonist activity at human mGluR5 expressed in HEK293 cells by fluorescent Ca2+ assay; assay type: functional, cell-based
[14] = target: Metabotropic glutamate receptor 6 (Rattus norvegicus) (UniProt P35349); assay: Agonist activity at rat mGluR6 expressed in CHO cells by [35S]GTPgammaS binding assay; assay type: functional, cell-based
[15] = target: Metabotropic glutamate receptor 3 (Homo sapiens) (UniProt Q14832); assay: Antagonist activity at human mGluR3 expressed in HEK293 cells by fluorescent Ca2+ assay; assay type: functional, cell-based
[16] = target: T1, Metabotropic glutamate receptor 2; assay: Positive allosteric modulation of human mGlu2 receptor expressed in CHO cells assessed as fold shift in glutamate-induced [35S]GTPgammaS binding at 3 uM after 30 mins by liquid scintillation counting; assay type: functional, cell-based
Target sequence in this assay (Q14416 19-872 limits assumed): as above

[17] = target: Metabotropic glutamate receptor 1 (Homo sapiens) (UniProt Q13255); assay: Antagonist activity at human mGluR1 expressed in HEK293 cells by fluorescent Ca2+ assay; assay type: functional, cell-based
Rattus norvegicus [18] = assay: Effect on sleep-awake cycle in Sprague-Dawley rat EEG model assessed as intermediate state of sleep time at 10 mg/kg, sc by sleep-wake electroencephalogram assay; assay type: functional, organism-based; parameters: dose 10 mg/kg
[19] = target: Metabotropic glutamate receptor 6 (Rattus norvegicus) (UniProt P35349); assay: Antagonist activity at rat mGluR6 expressed in CHO cells by [35S]GTPgammaS binding assay; assay type: functional, cell-based
Rattus norvegicus [20] = assay: Effect on sleep-awake cycle in Sprague-Dawley rat EEG model assessed as passive wake time at 10 mg/kg, sc by sleep-wake electroencephalogram assay; assay type: functional, organism-based; parameters: dose 10 mg/kg
Rattus norvegicus [21] = assay: Effect on sleep-awake cycle in Sprague-Dawley rat EEG model assessed as active awake time at 10 mg/kg, sc by sleep-wake electroencephalogram assay; assay type: functional, organism-based; parameters: dose 10 mg/kg
[22] = target: Metabotropic glutamate receptor 5 (Homo sapiens) (UniProt P41594); assay: Antagonist activity at human mGluR5 expressed in HEK293 cells by fluorescent Ca2+ assay; assay type: functional, cell-based
[23] = Drug level in Swiss mouse brain at 10 mg/kg, sc after 1.5 hrs; assay type: ADME, organism-based; parameters: dose 10 mg/kg, route subcutaneous; settings: read-out: Drug uptake
[24] = Drug level in Swiss mouse brain at 10 mg/kg, sc after 0.5 hrs; assay type: ADME, organism-based; parameters: dose 10 mg/kg, route subcutaneous; settings: read-out: Drug uptake
Rattus norvegicus [25] = assay: Effect on sleep-awake cycle in Sprague-Dawley rat EEG model assessed as increase of REM sleep onset latency at 10 mg/kg, sc by sleep-wake electroencephalogram assay; assay type: functional, organism-based; parameters: dose 10 mg/kg
Rattus norvegicus [26] = assay: Inhibition of rapid eye movement sleep in Sprague-Dawley rat EEG model at 10 mg/kg, sc up to 2 hrs by sleep-wake electroencephalogram assay; assay type: functional, organism-based; parameters: dose 10 mg/kg
[27] = target: Metabotropic glutamate receptor 3 (Homo sapiens) (UniProt Q14832); assay: Agonist activity at human mGluR3 expressed in HEK293 cells by fluorescent Ca2+ assay; assay type: functional, cell-based
[28] = Ratio of drug level in brain to plasma in Swiss mouse at 10 mg/kg, sc after 1 hr; assay type: ADME, organism-based; parameters: dose 10 mg/kg, route subcutaneous; settings: read-out: BPR

hERG, sequence (Q12809 whole entry): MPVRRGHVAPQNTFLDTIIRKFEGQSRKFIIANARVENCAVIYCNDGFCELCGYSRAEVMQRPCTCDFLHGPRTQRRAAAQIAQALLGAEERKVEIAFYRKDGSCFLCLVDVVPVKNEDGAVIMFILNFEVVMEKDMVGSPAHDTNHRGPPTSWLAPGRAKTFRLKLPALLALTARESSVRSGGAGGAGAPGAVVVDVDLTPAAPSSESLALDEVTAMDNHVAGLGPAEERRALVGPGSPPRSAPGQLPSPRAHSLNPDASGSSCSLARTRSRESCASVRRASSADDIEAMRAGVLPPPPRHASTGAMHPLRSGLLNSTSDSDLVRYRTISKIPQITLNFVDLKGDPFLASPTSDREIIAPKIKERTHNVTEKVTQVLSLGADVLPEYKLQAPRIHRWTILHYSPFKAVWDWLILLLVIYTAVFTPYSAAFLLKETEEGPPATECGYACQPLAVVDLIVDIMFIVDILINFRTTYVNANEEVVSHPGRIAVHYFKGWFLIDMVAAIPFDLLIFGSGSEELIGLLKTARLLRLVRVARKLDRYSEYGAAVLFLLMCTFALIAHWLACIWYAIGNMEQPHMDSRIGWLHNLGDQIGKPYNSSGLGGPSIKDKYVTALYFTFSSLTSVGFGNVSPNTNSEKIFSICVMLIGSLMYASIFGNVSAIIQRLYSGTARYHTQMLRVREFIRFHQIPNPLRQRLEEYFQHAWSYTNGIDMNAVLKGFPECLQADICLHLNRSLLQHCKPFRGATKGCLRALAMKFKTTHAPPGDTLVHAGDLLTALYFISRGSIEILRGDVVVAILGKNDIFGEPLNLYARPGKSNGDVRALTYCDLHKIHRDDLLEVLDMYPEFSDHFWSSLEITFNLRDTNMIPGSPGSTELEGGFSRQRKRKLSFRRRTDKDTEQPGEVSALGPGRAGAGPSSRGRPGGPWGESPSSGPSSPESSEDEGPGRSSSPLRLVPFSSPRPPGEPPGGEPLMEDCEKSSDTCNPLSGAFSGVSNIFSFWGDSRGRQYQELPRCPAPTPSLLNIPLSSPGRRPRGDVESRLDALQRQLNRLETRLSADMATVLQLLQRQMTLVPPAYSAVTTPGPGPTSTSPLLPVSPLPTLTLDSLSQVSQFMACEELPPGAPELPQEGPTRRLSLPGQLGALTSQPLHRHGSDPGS
Metabotropic glutamate receptor 5 (Homo sapiens), sequence (P41594 21-1212 limits assumed): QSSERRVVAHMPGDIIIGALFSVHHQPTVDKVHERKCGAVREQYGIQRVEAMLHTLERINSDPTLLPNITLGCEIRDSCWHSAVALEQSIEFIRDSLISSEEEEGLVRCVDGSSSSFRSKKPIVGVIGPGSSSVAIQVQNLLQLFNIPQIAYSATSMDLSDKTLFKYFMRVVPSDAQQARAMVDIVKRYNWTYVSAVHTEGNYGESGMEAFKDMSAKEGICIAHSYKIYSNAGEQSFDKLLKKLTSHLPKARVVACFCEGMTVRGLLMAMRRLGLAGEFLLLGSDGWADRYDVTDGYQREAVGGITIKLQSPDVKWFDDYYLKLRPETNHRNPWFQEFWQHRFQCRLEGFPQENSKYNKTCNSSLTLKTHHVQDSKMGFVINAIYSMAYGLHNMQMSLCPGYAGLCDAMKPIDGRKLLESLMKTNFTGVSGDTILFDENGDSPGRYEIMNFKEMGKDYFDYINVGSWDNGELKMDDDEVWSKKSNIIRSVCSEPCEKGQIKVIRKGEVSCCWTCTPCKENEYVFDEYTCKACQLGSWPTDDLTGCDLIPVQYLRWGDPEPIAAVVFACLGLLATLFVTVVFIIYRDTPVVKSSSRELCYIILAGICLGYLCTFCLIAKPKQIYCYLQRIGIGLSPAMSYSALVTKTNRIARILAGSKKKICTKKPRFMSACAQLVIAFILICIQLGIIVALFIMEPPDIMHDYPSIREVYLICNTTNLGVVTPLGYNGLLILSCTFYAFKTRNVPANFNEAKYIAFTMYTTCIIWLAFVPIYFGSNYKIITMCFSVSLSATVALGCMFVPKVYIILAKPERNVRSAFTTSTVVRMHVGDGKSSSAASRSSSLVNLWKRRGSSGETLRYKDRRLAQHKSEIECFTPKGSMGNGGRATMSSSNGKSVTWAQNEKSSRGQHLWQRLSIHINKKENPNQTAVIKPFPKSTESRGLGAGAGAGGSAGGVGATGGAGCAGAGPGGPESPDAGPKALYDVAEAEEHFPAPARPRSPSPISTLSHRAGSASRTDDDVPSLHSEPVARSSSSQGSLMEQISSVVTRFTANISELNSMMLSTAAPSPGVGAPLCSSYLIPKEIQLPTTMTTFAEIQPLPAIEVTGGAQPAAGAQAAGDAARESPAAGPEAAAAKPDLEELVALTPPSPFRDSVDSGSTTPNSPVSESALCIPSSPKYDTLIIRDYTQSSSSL
Metabotropic glutamate receptor 6 (Rattus norvegicus), sequence (P35349 whole entry): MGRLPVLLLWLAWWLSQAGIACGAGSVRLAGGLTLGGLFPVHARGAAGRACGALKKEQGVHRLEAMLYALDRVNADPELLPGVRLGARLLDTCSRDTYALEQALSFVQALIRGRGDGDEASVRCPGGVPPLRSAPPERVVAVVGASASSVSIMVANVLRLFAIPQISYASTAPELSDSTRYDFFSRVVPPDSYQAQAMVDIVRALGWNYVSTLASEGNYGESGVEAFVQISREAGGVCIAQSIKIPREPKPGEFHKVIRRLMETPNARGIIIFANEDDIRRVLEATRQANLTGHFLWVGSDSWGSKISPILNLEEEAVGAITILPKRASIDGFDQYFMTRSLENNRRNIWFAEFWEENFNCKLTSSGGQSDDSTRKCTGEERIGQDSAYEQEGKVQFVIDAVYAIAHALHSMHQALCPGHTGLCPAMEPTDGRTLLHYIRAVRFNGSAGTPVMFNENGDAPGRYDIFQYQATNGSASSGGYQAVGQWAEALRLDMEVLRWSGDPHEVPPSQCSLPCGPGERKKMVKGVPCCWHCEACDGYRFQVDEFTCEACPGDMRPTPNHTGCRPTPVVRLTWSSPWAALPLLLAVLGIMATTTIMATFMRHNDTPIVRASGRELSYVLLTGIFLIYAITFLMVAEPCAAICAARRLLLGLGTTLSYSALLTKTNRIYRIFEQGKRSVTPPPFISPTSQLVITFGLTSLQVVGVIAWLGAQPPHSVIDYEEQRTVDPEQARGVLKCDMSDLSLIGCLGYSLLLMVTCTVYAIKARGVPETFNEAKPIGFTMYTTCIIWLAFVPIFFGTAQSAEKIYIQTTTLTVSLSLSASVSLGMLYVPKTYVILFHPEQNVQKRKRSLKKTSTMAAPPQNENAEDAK

SMILES: CCCCn1ccc(-c2ccc(Oc3ccnc(C)c3)cc2Cl)c(C#N)c1=O
pEC50 [1]: 6.03
metabolised at 0.25 h, 5 µM [2]: 34%
metabolised at 0.25 h, 5 µM [4]: 47%
Emax [3]: 187%

SMILES: CC(C)CCn1ccc(-c2ccc(Nc3ccncc3)cc2)c(C#N)c1=O
pEC50 [1]: 5.83
metabolised at 0.25 h, 5 µM [2]: 25%
metabolised at 0.25 h, 5 µM [4]: 33%
Emax [3]: 186%
inhibition at 5 min, 3 µM (hERG): 91%

SMILES: CC(C)CCn1ccc(-c2ccc(Oc3cccnc3)cc2)c(C#N)c1=O
pEC50 [1]: 6.32
solubility [5]: ≥ 4000 µg/mL
metabolised at 0.25 h, 5 µM [2]: 21%
metabolised at 0.25 h, 5 µM [4]: 29%
Emax [3]: 231%
inhibition at 5 min, 3 µM (hERG): 30%

SMILES: CC(C)CCn1ccc(-c2ccc(NC3CCOCC3)c(Cl)c2)c(C#N)c1=O
pEC50 [1]: 6.76
metabolised at 0.25 h, 5 µM [2]: 42%
metabolised at 0.25 h, 5 µM [4]: 47%
Emax [3]: 247%

SMILES: CCCCn1ccc(-c2ccc(Oc3ccnc(C)c3)c(F)c2)c(C#N)c1=O
Activity [6]: inactive
concentration at 1 h [7]: 1120 ng/g
Activity [8]: > 50%
pEC50 [1]: 6.50
Activity [9]: inactive
Activity (Rattus norvegicus [10]): inactive
Activity (Rattus norvegicus [11]): inactive
Activity [12]: inactive
Activity [13]: inactive
Activity [14]: inactive
Activity [15]: inactive
fold change (FC) [16]: 11
Activity [17]: inactive
metabolised at 0.25 h, 5 µM [2]: 33%
Activity (Rattus norvegicus [18]): inactive
Activity [19]: inactive
Activity (Rattus norvegicus [20]): inactive
Activity (Rattus norvegicus [21]): inactive
Activity [22]: inactive
metabolised at 0.25 h, 5 µM [4]: 50%
Emax [3]: 233%
concentration at 1.5 h [23]: 1020 ng/g
inhibition at 5 min, 3 µM (hERG): 21%
concentration at 0.5 h [24]: 1280 ng/g
Activity (Rattus norvegicus [25]): Active
inhibition (Rattus norvegicus [26]): Active
Activity [27]: inactive
Kp at 1 h [28]: 0.6

SMILES: CC(C)CCn1ccc(-c2ccc(Oc3ccccn3)cc2)c(C#N)c1=O
pEC50 [1]: 6.19
metabolised at 0.25 h, 5 µM [2]: 20%
metabolised at 0.25 h, 5 µM [4]: 36%
Emax [3]: 249%
inhibition at 5 min, 3 µM (hERG): 33%

SMILES: CCCCn1ccc(-c2ccc(Oc3cccnc3C)c(Cl)c2)c(C#N)c1=O
pEC50 [1]: 7.00
metabolised at 0.25 h, 5 µM [2]: 29%
metabolised at 0.25 h, 5 µM [4]: 60%
Emax [3]: 236%
inhibition at 5 min, 3 µM (hERG): 56%

SMILES: Cc1ccc(Oc2ccc(-c3ccn(CC4CC4)c(=O)c3C#N)cc2Cl)c(C)n1
concentration at 1 h [7]: 357 ng/g
pEC50 [1]: 7.19
metabolised at 0.25 h, 5 µM [2]: 25%
metabolised at 0.25 h, 5 µM [4]: 27%
Emax [3]: 196%
concentration at 1.5 h [23]: 240 ng/g
inhibition at 5 min, 3 µM (hERG): 89%
concentration at 0.5 h [24]: 750 ng/g
Kp at 1 h [28]: 0.1

The next lines start with the values.

pEC50 [1]: 5.93
metabolised at 0.25 h, 5 µM [2]: 35%
Emax [3]: 160%
SMILES: COc1ccc(-c2ccn(CCC(C)C)c(=O)c2C#N)cc1F

pEC50 [1]: 7.00
metabolised at 0.25 h, 5 µM [2]: 59%
metabolised at 0.25 h, 5 µM [4]: 49%
Emax [3]: 246%
SMILES: Cc1ccc(Oc2ccc(-c3ccn(CCC(C)C)c(=O)c3C#N)cc2)c(C)n1

pEC50 [1]: 7.00
Emax [3]: 199%
SMILES: CC(C)CCn1ccc(-c2ccc(OC3CCCC3)c(Cl)c2)c(C#N)c1=O

pEC50 [1]: 6.96
metabolised at 0.25 h, 5 µM [2]: 17%
metabolised at 0.25 h, 5 µM [4]: 72%
Emax [3]: 206%
SMILES: CC(C)CCn1ccc(-c2ccc(OCC3CC3)c(Cl)c2)c(C#N)c1=O

pEC50 [1]: 6.59
metabolised at 0.25 h, 5 µM [2]: 26%
Emax [3]: 242%
SMILES: COc1ccc(-c2ccn(CCC(C)C)c(=O)c2C#N)cc1OC

pEC50 [1]: 5.07
metabolised at 0.25 h, 5 µM [2]: 36%
metabolised at 0.25 h, 5 µM [4]: 100%
Emax [3]: 117%
SMILES: CC(C)CCn1ccc(-c2ccccc2)c(C#N)c1=O

pEC50 [1]: 6.73
metabolised at 0.25 h, 5 µM [2]: 36%
metabolised at 0.25 h, 5 µM [4]: 54%
Emax [3]: 197%
SMILES: CC(C)CCn1ccc(-c2ccc(OC3CCOCC3)c(Cl)c2)c(C#N)c1=O

pEC50 [1]: < 5.00
metabolised at 0.25 h, 5 µM [2]: 38%
Emax [3]: 120%
SMILES: COc1ccccc1-c1ccn(CCC(C)C)c(=O)c1C#N

pEC50 [1]: 6.44
metabolised at 0.25 h, 5 µM [2]: 43%
metabolised at 0.25 h, 5 µM [4]: 99%
Emax [3]: 200%
SMILES: COc1ccc(-c2ccn(CCC(C)C)c(=O)c2C#N)cc1Cl
